Read-outs that look alike come from different tables or passages of the source.
Columns and labels:
[1] = tested on: Glomerella lagenarium (Colletotrichum lagenarium); assay: Glomerella lagenarium (Colletotrichum lagenarium) / liquid culture (Anthracnose); type: cell-based; settings: Colletotrichum orbiculare, read-out: disease control (inhibition of growth, photometric)
[2] = tested on: Monographella nivalis (Microdochium nivale); assay: Monographella nivalis (Microdochium nivale) / liquid culture (foot rot cereals); type: cell-based; settings: read-out: disease control (inhibition of growth, photometric)
[3] = tested on: Mycosphaerella arachidis (Cercospora arachidicola); assay: Mycosphaerella arachidis (Cercospora arachidicola) / liquid culture (early leaf spot); type: cell-based; settings: read-out: disease control (inhibition of growth, photometric)
[4] = tested on: Mycosphaerella graminicola (Septoria tritici); assay: Mycosphaerella graminicola (Septoria tritici) / liquid culture (Septoria blotch); type: cell-based; settings: Zymoseptoria tritici, read-out: disease control (inhibition of growth, photometric)
[5] = tested on: Puccinia recondita f. sp. tritici; assay: Puccinia recondita f. sp. tritici / wheat / leaf disc preventative (Brown rust); type: in vivo; settings: foliar, read-out: percent disease control compared to untreated
[6] = tested on: Botryotinia fuckeliana (Botrytis cinerea); assay: Botryotinia fuckeliana (Botrytis cinerea) / liquid culture (Gray mould); type: cell-based; settings: read-out: disease control (inhibition of growth, photometric)
[7] = tested on: Magnaporthe grisea (Pyricularia oryzae); assay: whole plant or invertebrate; type: in vivo; settings: foliar, read-out: percent disease control compared to untreated
Phakopsora pachyrhizi = Phakopsora pachyrhizi / soybean / leaf disc preventative (Asian soybean rust); type: in vivo; settings: foliar, read-out: percent disease control compared to untreated
[8] = tested on: Phaeosphaeria nodorum (Septoria nodorum); assay: Phaeosphaeria nodorum (Septoria nodorum) / wheat / leaf disc preventative (Glume blotch); type: in vivo; settings: Parastagonospora nodorum, foliar, read-out: percent disease control compared to untreated
[9] = 20 ppm in the applied formulation, PDB, 24° C., 3 to 4 days after application, vs untreated control
[10] = 20 ppm in the applied formulation, PDB, 24° C., 4-5 days after application, vs untreated control
[11] = 20 ppm in the applied formulation, PDB, 24° C., 4 to 5 days after application, vs untreated control
[12] = 200 ppm in the applied formulation, wheat leaf segments cv. Kanzler, inoculated 1 day after application, assessed 7-9 days after application
[13] = 20 ppm in the applied formulation, Vogels broth, 24° C., 3-4 days after application, vs untreated control
[14] = 200 ppm in the applied formulation, soybean leaf disks, inoculated one day after application, assessed 12 to 14 days after application
[15] = 200 ppm in the applied formulation, wheat leaf segments cv. Kanzler, inoculated 2 days after application, assessed 5-7 days after application

COc1ccnc(C(=O)N[C@@H](C)C(=O)OC(C)C(C)n2ccc3c(Cl)ccc(Cl)c32)c1OC(C)=O (stereo partly drawn) [X.15, [2-(4,7-dichloroindol-1-yl)-1-methyl-propyl] (2S)-2-[(3-acetoxy-4-methoxy-pyridine-2-carbonyl)amino]propanoate]
≥ 80%: inhibition at 20 ppm [1, 9] | inhibition at 20 ppm [2, 10] | inhibition at 20 ppm [3, 10] | inhibition at 20 ppm [4, 11] | pest or weed control at 200 ppm [5, 12]

COc1ccnc(C(=O)N[C@@H](C)C(=O)OC(C)C2(c3ccccc3)CCCCC2)c1O (stereo partly drawn) [X.09, 1-(1-phenylcyclohexyl)ethyl (2S)-2-[(3-hydroxy-4-methoxy-pyridine-2-carbonyl)amino]propanoate]
≥ 80%: inhibition at 20 ppm [6, 13] | inhibition at 20 ppm [1, 9] | pest or weed control at 200 ppm [7] | inhibition at 20 ppm [2, 10] | inhibition at 20 ppm [3, 10] | inhibition at 20 ppm [4, 11] | pest or weed control at 200 ppm [5, 12]

COc1ccnc(C(=O)N[C@@H](C)C(=O)OC(C)C2(c3ccc(Cl)cc3)CCC2)c1O (stereo partly drawn) [X.01, 1-[1-(4-chlorophenyl)cyclobutyl]ethyl(2S)-2-[(3-hydroxy-4-methoxy-pyridine-2-carbonyl)amino]propanoate]
≥ 80%: inhibition at 20 ppm [6, 13] | inhibition at 20 ppm [1, 9] | inhibition at 20 ppm [2, 10] | inhibition at 20 ppm [3, 10] | inhibition at 20 ppm [4, 11] | pest or weed control at 200 ppm [5, 12]

COc1ccnc(C(=O)N[C@@H](C)C(=O)OC(C)C(C)c2ncc(Cl)cc2Cl)c1OCOC(=O)C(C)C (stereo partly drawn) [X.06, [2-[[(1S)-2-[2-(3,5-dichloro-2-pyridyl)-1-methyl-propoxy]-1-methyl-2-oxo-ethyl]carbamoyl]-4-methoxy-3-pyridyl]oxymethyl 2-methylpropanoate]
≥ 80%: inhibition at 20 ppm [2, 10] | inhibition at 20 ppm [3, 10] | inhibition at 20 ppm [4, 11] | pest or weed control at 200 ppm (Phakopsora pachyrhizi; [14]) | pest or weed control at 200 ppm [5, 12]

COc1ccnc(C(=O)N[C@@H](C)C(=O)OC(C)C(C)c2ncc(Cl)cc2Cl)c1O (stereo partly drawn) [X.03, [2-(3,5-dichloro-2-pyridyl)-1-methyl-propyl] (2S)-2-[(3-hydroxy-4-methoxy-pyridine-2-carbonyl)amino]propanoate]
≥ 80%: inhibition at 20 ppm [6] | inhibition at 20 ppm [1] | inhibition at 20 ppm [2] | inhibition at 20 ppm [3] | inhibition at 20 ppm [4] | pest or weed control at 200 ppm (Phakopsora pachyrhizi) | pest or weed control at 200 ppm [8] | pest or weed control at 200 ppm [5]

COc1ccnc(C(=O)N[C@@H](C)C(=O)O[C@@H](C)C2(c3cccc4ccccc34)CC2)c1OC(C)=O [X.17, [(1S)-1-[1-(1-naphthyl)cyclopropyl]ethyl] (2S)-2-[(3-acetoxy-4-methoxy-pyridine-2-carbonyl)amino]propanoate]
≥ 80%: inhibition at 20 ppm [6, 13] | inhibition at 20 ppm [1, 9] | pest or weed control at 200 ppm [7] | inhibition at 20 ppm [2, 10] | inhibition at 20 ppm [3, 10] | inhibition at 20 ppm [4, 11] | pest or weed control at 200 ppm (Phakopsora pachyrhizi; [14]) | pest or weed control at 200 ppm [8, 15] | pest or weed control at 200 ppm [5, 12]

COc1ccnc(C(=O)N[C@@H](C)C(=O)OC(C)C(C)c2ccc3ccccc3n2)c1O (stereo partly drawn) [X.10, [1-methyl-2-(2-quinolyl)propyl] (2S)-2-[(3-hydroxy-4-methoxy-pyridine-2-carbonyl)amino]propanoate]
≥ 80%: inhibition at 20 ppm [6, 13] | inhibition at 20 ppm [1, 9] | inhibition at 20 ppm [2, 10] | inhibition at 20 ppm [4, 11] | pest or weed control at 200 ppm [5, 12]

COc1ccnc(C(=O)N[C@@H](C)C(=O)OC(C)C(C)c2ccc(Cl)s2)c1O (stereo partly drawn) [X.14, [2-(5-chloro-2-thienyl)-1-methyl-propyl] (2S)-2-[(3-hydroxy-4-methoxy-pyridine-2-carbonyl)amino]propanoate]
≥ 80%: inhibition at 20 ppm [6, 13] | inhibition at 20 ppm [1, 9] | inhibition at 20 ppm [2, 10] | inhibition at 20 ppm [3, 10] | inhibition at 20 ppm [4, 11] | pest or weed control at 200 ppm [5, 12]

COc1ccnc(C(=O)N[C@@H](C)C(=O)O[C@@H](C)C2(c3cccc4ccccc34)CC2)c1O [X.05, [(1S)-1-[1-(1-naphthyl)cyclopropyl]ethyl] (2S)-2-[(3-hydroxy-4-methoxy-pyridine-2-carbonyl)amino]propanoate]
≥ 80%: inhibition at 20 ppm [6, 13] | inhibition at 20 ppm [1, 9] | pest or weed control at 200 ppm [7] | inhibition at 20 ppm [2, 10] | inhibition at 20 ppm [3, 10] | inhibition at 20 ppm [4, 11] | pest or weed control at 200 ppm (Phakopsora pachyrhizi; [14]) | pest or weed control at 200 ppm [8, 15] | pest or weed control at 200 ppm [5, 12]

COc1ccnc(C(=O)N[C@@H](C)C(=O)OC(C)C(C)n2ccc3c(Br)ccc(F)c32)c1O (stereo partly drawn) [X.02, [2-(4-bromo-7-fluoro-indol-1-yl)-1-methyl-propyl] (2S)-2-[(3-hydroxy-4-methoxy-pyridine-2-carbonyl)amino]propanoate]
≥ 80%: inhibition at 20 ppm [6, 13] | inhibition at 20 ppm [1, 9] | inhibition at 20 ppm [2, 10] | inhibition at 20 ppm [3, 10] | inhibition at 20 ppm [4, 11] | pest or weed control at 200 ppm (Phakopsora pachyrhizi; [14]) | pest or weed control at 200 ppm [5, 12]

COc1ccnc(C(=O)N[C@@H](C)C(=O)OC(C)C(C)n2ccc3c(F)ccc(Br)c32)c1OC(C)=O (stereo partly drawn) [X.16, [2-(7-bromo-4-fluoro-indol-1-yl)-1-methyl-propyl] (2S)-2-[(3-acetoxy-4-methoxy-pyridine-2-carbonyl)amino]propanoate]
≥ 80%: inhibition at 20 ppm [1, 9] | inhibition at 20 ppm [2, 10] | inhibition at 20 ppm [3, 10] | inhibition at 20 ppm [4, 11] | pest or weed control at 200 ppm (Phakopsora pachyrhizi; [14]) | pest or weed control at 200 ppm [5, 12]

COc1ccnc(C(=O)N[C@@H](C)C(=O)O[C@@H](C)C2(c3cccc4ccccc34)CC2)c1OCOC(C)=O [X.04, [(1S)-1-[1-(1-naphthyl)cyclopropyl]ethyl] (2S)-2-[[3-(acetoxymethoxy)-4-methoxy-pyridine-2-carbonyl]amino]propanoate]
≥ 80%: inhibition at 20 ppm [1, 9] | pest or weed control at 200 ppm [7] | inhibition at 20 ppm [2, 10] | inhibition at 20 ppm [3, 10] | inhibition at 20 ppm [4, 11] | pest or weed control at 200 ppm (Phakopsora pachyrhizi; [14]) | pest or weed control at 200 ppm [8, 15] | pest or weed control at 200 ppm [5, 12]

COc1ccnc(C(=O)N[C@@H](C)C(=O)OC(C)C(C)n2ccc3ccc(C(F)(F)F)cc32)c1O (stereo partly drawn) [X.12, [1-methyl-2-[6-(trifluoromethyl)indol-1-yl]propyl] (2S)-2-[(3-hydroxy-4-methoxy-pyridine-2-carbonyl)amino]propanoate]
≥ 80%: inhibition at 20 ppm [6, 13] | inhibition at 20 ppm [1, 9] | pest or weed control at 200 ppm [7] | inhibition at 20 ppm [2, 10] | inhibition at 20 ppm [3, 10] | inhibition at 20 ppm [4, 11] | pest or weed control at 200 ppm [5, 12]

COc1ccnc(C(=O)N[C@@H](C)C(=O)OC(C)C(C)n2ncc3ccccc32)c1O (stereo partly drawn) [X.13, (2-indazol-1-yl-1-methyl-propyl) (2S)-2-[(3-hydroxy-4-methoxy-pyridine-2-carbonyl)amino]propanoate]
≥ 80%: inhibition at 20 ppm [4, 11]

COc1ccnc(C(=O)N[C@@H](C)C(=O)OC(C)C(C)n2ccc3cccc(Br)c32)c1O (stereo partly drawn) [X.11, [2-(7-bromoindol-1-yl)-1-methyl-propyl] (2S)-2-[(3-hydroxy-4-methoxy-pyridine-2-carbonyl)amino]propanoate]
≥ 80%: inhibition at 20 ppm [1, 9] | inhibition at 20 ppm [2, 10] | inhibition at 20 ppm [3, 10] | inhibition at 20 ppm [4, 11] | pest or weed control at 200 ppm (Phakopsora pachyrhizi; [14]) | pest or weed control at 200 ppm [5, 12]

COc1ccnc(C(=O)N[C@@H](C)C(=O)O[C@@H](C)C2(c3cccc4ccccc34)CC2)c1OCOC(=O)C(C)C [X.07, [4-methoxy-2-[[(1S)-1-methyl-2-[(1S)-1-[1-(1-naphthyl)cyclopropyl]ethoxy]-2-oxo-ethyl]carbamoyl]-3-pyridyl]oxymethyl 2-methylpropanoate]
≥ 80%: inhibition at 20 ppm [1, 9] | pest or weed control at 200 ppm [7] | inhibition at 20 ppm [3, 10] | inhibition at 20 ppm [4, 11] | pest or weed control at 200 ppm [8, 15] | pest or weed control at 200 ppm [5, 12]

COc1ccnc(C(=O)N[C@@H](C)C(=O)OC(C)C(C)(C)c2ccc(Br)cc2)c1O (stereo partly drawn) [X.08, [2-(4-bromophenyl)-1,2-dimethyl-propyl] (2S)-2-[(3-hydroxy-4-methoxy-pyridine-2-carbonyl)amino]propanoate]
≥ 80%: inhibition at 20 ppm [6, 13] | inhibition at 20 ppm [1, 9] | pest or weed control at 200 ppm [7] | inhibition at 20 ppm [2, 10] | inhibition at 20 ppm [3, 10] | inhibition at 20 ppm [4, 11] | pest or weed control at 200 ppm [5, 12]

From patent US20220167615A1, “FUNGICIDAL COMPOSITIONS” (SYNGENTA CROP PROTECTION AG, priority 2019, published 2022)
